Assay results published in PubChem BioAssay AID1259407 (Chemical Carcinogenesis Research Information System (CCRIS), 2018).
The source made the active and inactive calls. No rule for the calls is given here.

Test system: CCRIS mutagenicity, Ames/micronucleus/aberration tests
Test: CCRIS mutagenicity studies
[1] = Test System: AMES SALMONELLA TYPHIMURIUM, Strain/Indicator: TA98, Metabolic Activation: NONE, Method: STANDARD PLATE
[2] = Test System: AMES SALMONELLA TYPHIMURIUM, Strain/Indicator: TA98, Metabolic Activation: RAT, LIVER, S-9, AROCLOR 1254, Method: STANDARD PLATE
[3] = Test System: AMES SALMONELLA TYPHIMURIUM, Strain/Indicator: TA98, Metabolic Activation: RAT, LIVER, S-9, Method: STANDARD PLATE
[4] = Test System: AMES SALMONELLA TYPHIMURIUM, Strain/Indicator: TA100, Metabolic Activation: NONE, Method: STANDARD PLATE
[5] = Test System: AMES SALMONELLA TYPHIMURIUM, Strain/Indicator: TA100, Metabolic Activation: RAT, LIVER, S-9, AROCLOR 1254, Method: STANDARD PLATE
[6] = Test System: AMES SALMONELLA TYPHIMURIUM, Strain/Indicator: TA100, Metabolic Activation: RAT, LIVER, S-9, Method: STANDARD PLATE
[7] = Test System: AMES SALMONELLA TYPHIMURIUM, Strain/Indicator: TA1535, Metabolic Activation: NONE, Method: STANDARD PLATE
[8] = Test System: AMES SALMONELLA TYPHIMURIUM, Strain/Indicator: TA1535, Metabolic Activation: RAT, LIVER, S-9, AROCLOR 1254, Method: STANDARD PLATE
[9] = Test System: AMES SALMONELLA TYPHIMURIUM, Strain/Indicator: TA1537, Metabolic Activation: NONE, Method: STANDARD PLATE
[10] = Test System: AMES SALMONELLA TYPHIMURIUM, Strain/Indicator: TA1537, Metabolic Activation: RAT, LIVER, S-9, AROCLOR 1254, Method: STANDARD PLATE
[11] = Test System: AMES SALMONELLA TYPHIMURIUM, Strain/Indicator: TA1538, Metabolic Activation: NONE, Method: STANDARD PLATE
[12] = Test System: AMES SALMONELLA TYPHIMURIUM, Strain/Indicator: TA1538, Metabolic Activation: RAT, LIVER, S-9, AROCLOR 1254, Method: STANDARD PLATE

Measured: mutagenic call

CC(=O)c1ccc(S(=O)(=O)NC(=O)NC2CCCCC2)cc1
inactive: Test System: AMES SALMONELLA TYPHIMURIUM, Strain/Indicator: TA98, Metabolic Activation: HAMSTER, LIVER, S-9, AROCLOR 1254, Method: STANDARD PLATE inactive; negative | Test System: AMES SALMONELLA TYPHIMURIUM, Strain/Indicator: TA98, Metabolic Activation: HAMSTER, LIVER, S-9, Method: STANDARD PLATE inactive; negative | Test System: AMES SALMONELLA TYPHIMURIUM, Strain/Indicator: TA98, Metabolic Activation: MOUSE, LIVER, S-9, AROCLOR 1254, Method: STANDARD PLATE inactive; negative | Test System: AMES SALMONELLA TYPHIMURIUM, Strain/Indicator: TA98, Metabolic Activation: MOUSE, LIVER, S-9, Method: STANDARD PLATE inactive; negative | [1] inactive; negative | [2] inactive; negative | [3] inactive; negative | Test System: AMES SALMONELLA TYPHIMURIUM, Strain/Indicator: TA100, Metabolic Activation: HAMSTER, LIVER, S-9, AROCLOR 1254, Method: STANDARD PLATE inactive; negative | Test System: AMES SALMONELLA TYPHIMURIUM, Strain/Indicator: TA100, Metabolic Activation: HAMSTER, LIVER, S-9, Method: STANDARD PLATE inactive; negative | Test System: AMES SALMONELLA TYPHIMURIUM, Strain/Indicator: TA100, Metabolic Activation: MOUSE, LIVER, S-9, AROCLOR 1254, Method: STANDARD PLATE inactive; negative | Test System: AMES SALMONELLA TYPHIMURIUM, Strain/Indicator: TA100, Metabolic Activation: MOUSE, LIVER, S-9, Method: STANDARD PLATE inactive; negative | [4] inactive; negative | [5] inactive; negative | [6] inactive; negative | Test System: AMES SALMONELLA TYPHIMURIUM, Strain/Indicator: TA1535, Metabolic Activation: HAMSTER, LIVER, S-9, AROCLOR 1254, Method: STANDARD PLATE inactive; negative | Test System: AMES SALMONELLA TYPHIMURIUM, Strain/Indicator: TA1535, Metabolic Activation: HAMSTER, LIVER, S-9, Method: STANDARD PLATE inactive; negative | Test System: AMES SALMONELLA TYPHIMURIUM, Strain/Indicator: TA1535, Metabolic Activation: MOUSE, LIVER, S-9, AROCLOR 1254, Method: STANDARD PLATE inactive; negative | Test System: AMES SALMONELLA TYPHIMURIUM, Strain/Indicator: TA1535, Metabolic Activation: MOUSE, LIVER, S-9, Method: STANDARD PLATE inactive; negative | [7] inactive; negative | [8] inactive; negative | Test System: AMES SALMONELLA TYPHIMURIUM, Strain/Indicator: TA1535, Metabolic Activation: RAT, LIVER, S-9, Method: STANDARD PLATE inactive; negative | Test System: AMES SALMONELLA TYPHIMURIUM, Strain/Indicator: TA1537, Metabolic Activation: HAMSTER, LIVER, S-9, AROCLOR 1254, Method: STANDARD PLATE inactive; negative | Test System: AMES SALMONELLA TYPHIMURIUM, Strain/Indicator: TA1537, Metabolic Activation: HAMSTER, LIVER, S-9, Method: STANDARD PLATE inactive; negative | Test System: AMES SALMONELLA TYPHIMURIUM, Strain/Indicator: TA1537, Metabolic Activation: MOUSE, LIVER, S-9, AROCLOR 1254, Method: STANDARD PLATE inactive; negative | Test System: AMES SALMONELLA TYPHIMURIUM, Strain/Indicator: TA1537, Metabolic Activation: MOUSE, LIVER, S-9, Method: STANDARD PLATE inactive; negative | [9] inactive; negative | [10] inactive; negative | Test System: AMES SALMONELLA TYPHIMURIUM, Strain/Indicator: TA1537, Metabolic Activation: RAT, LIVER, S-9, Method: STANDARD PLATE inactive; negative | Test System: AMES SALMONELLA TYPHIMURIUM, Strain/Indicator: TA1538, Metabolic Activation: HAMSTER, LIVER, S-9, AROCLOR 1254, Method: STANDARD PLATE inactive; negative | Test System: AMES SALMONELLA TYPHIMURIUM, Strain/Indicator: TA1538, Metabolic Activation: HAMSTER, LIVER, S-9, Method: STANDARD PLATE inactive; negative | Test System: AMES SALMONELLA TYPHIMURIUM, Strain/Indicator: TA1538, Metabolic Activation: MOUSE, LIVER, S-9, AROCLOR 1254, Method: STANDARD PLATE inactive; negative | Test System: AMES SALMONELLA TYPHIMURIUM, Strain/Indicator: TA1538, Metabolic Activation: MOUSE, LIVER, S-9, Method: STANDARD PLATE inactive; negative | [11] inactive; negative | [12] inactive; negative | Test System: AMES SALMONELLA TYPHIMURIUM, Strain/Indicator: TA1538, Metabolic Activation: RAT, LIVER, S-9, Method: STANDARD PLATE inactive; negative | Test System: E. COLI, Strain/Indicator: WP2 UVRA, Metabolic Activation: HAMSTER, LIVER, S-9, AROCLOR 1254, Method: STANDARD PLATE inactive; negative | Test System: E. COLI, Strain/Indicator: WP2 UVRA, Metabolic Activation: HAMSTER, LIVER, S-9, Method: STANDARD PLATE inactive; negative | Test System: E. COLI, Strain/Indicator: WP2 UVRA, Metabolic Activation: MOUSE, LIVER, S-9, AROCLOR 1254, Method: STANDARD PLATE inactive; negative | Test System: E. COLI, Strain/Indicator: WP2 UVRA, Metabolic Activation: MOUSE, LIVER, S-9, Method: STANDARD PLATE inactive; negative | Test System: E. COLI, Strain/Indicator: WP2 UVRA, Metabolic Activation: NONE, Method: STANDARD PLATE inactive; negative | Test System: E. COLI, Strain/Indicator: WP2 UVRA, Metabolic Activation: RAT, LIVER, S-9, AROCLOR 1254, Method: STANDARD PLATE inactive; negative | Test System: E. COLI, Strain/Indicator: WP2 UVRA, Metabolic Activation: RAT, LIVER, S-9, Method: STANDARD PLATE inactive; negative

Cc1cccc(C)c1N=Nc1c(O)ccc2ccccc12
inactive: [1] inactive; negative | [3] inactive; negative | [4] inactive; negative | [6] inactive; negative

O[C@@H]1[C@H]2O[C@H]2c2c(ccc3ccccc23)[C@H]1O
active: Test System: AMES SALMONELLA TYPHIMURIUM, Strain/Indicator: TA97, Metabolic Activation: NONE, Method: PREINCUBATION active; positive | Test System: AMES SALMONELLA TYPHIMURIUM, Strain/Indicator: TA98, Metabolic Activation: NONE, Method: PREINCUBATION active; positive | Test System: AMES SALMONELLA TYPHIMURIUM, Strain/Indicator: TA100, Metabolic Activation: NONE, Method: PREINCUBATION active; positive | [4] active; positive | Test System: AMES SALMONELLA TYPHIMURIUM, Strain/Indicator: TA104, Metabolic Activation: NONE, Method: PREINCUBATION active; positive | Test System: CHINESE HAMSTER V-79, Strain/Indicator: V-79/6-THIOGUANINE, Metabolic Activation: NONE active; positive

CCC1(CC)C(=O)NC(=O)NC1=O
active: End Point: IN VITRO MICRONUCLEUS, Test System: CHL/IU CELLS, Metabolic Activation: NONE active; positive

C=C(Br)CCl
inactive: Test System: AMES SALMONELLA TYPHIMURIUM, Strain/Indicator: TA100, Metabolic Activation: RAT, LIVER, MICROSOMES, PHENOBARBITAL, Method: STANDARD PLATE inactive; negative
active: Test System: AMES SALMONELLA TYPHIMURIUM, Strain/Indicator: TA100, Metabolic Activation: RAT, LIVER, MICROSOMES, PHENOBARBITAL, NADPH COFACTORS, Method: STANDARD PLATE active; positive

Cc1c(C)c(N)c(C)c(C)c1N
inactive: [1] inactive; negative | [2] inactive; negative | [4] inactive; negative | [5] inactive; negative | [7] inactive; negative | [8] inactive; negative | [9] inactive; negative | [10] inactive; negative | [11] inactive; negative | [12] inactive; negative
